Test systems include EKVX; DLD-1; NCI-H522; SN12C; SR; LOX IMVI; NCI-H23; A498; SK-MEL-2; HCT-15; COLO 205; SW-620; OVCAR-4; NCI-H226.
Assay in all cases: DTP human tumour cell line panel, 48 h

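Method: 48-hour compound exposure of cells in 96-well plates, five concentrations, linear interpolation of endpoints. Here, GI50 denotes the concentration required for 50% inhibition of growth.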 Activity calls are given as the source filed them. Cut-off read from the data, not from the text of the source: active = GI50 up to about 1.1 µM and inactive = higher.

As usually defined, the GI50 is the concentration at which growth is held to half of that of the control. For `O=c1c2ccccc2[nH]c(=S)n1-c1ccc(Br)cc1`, the GI50 with EKVX was > 100 µM (inactive); with DLD-1 it was 49.7 µM (inactive); in the test with NCI-H522, 43.1 µM (inactive); in the test with SN12C, > 100 µM (inactive); in the test with SR, > 100 µM (inactive); with LOX IMVI, 48.5 µM (inactive). In addition, the GI50 is 51.9 µM (inactive) in the test on NCI-H23; 51.6 µM (inactive) in the test on A498; > 100 µM (inactive) in the test with SK-MEL-2; 71.9 µM in the test on HCT-15; > 100 µM (inactive) in the test with COLO 205; 87.1 µM (inactive) in the test with SW-620. In addition, the GI50 in the test with OVCAR-4 is 44.8 µM (inactive); with NCI-H226, > 100 µM (inactive).
`O=c1c2cccnc2ncn1CCCN1CCOCC1`: the GI50 in the test with EKVX, in the test on DLD-1, in the test on NCI-H522, with SN12C, with SR and with LOX IMVI was > 100 µM (inactive) in each case. In addition, the GI50 is > 100 µM (inactive) in the test with NCI-H23; > 10 µM (inactive) in the test on SK-MEL-2; > 100 µM (inactive) in the test with COLO 205; > 100 µM (inactive) in the test on SW-620; > 100 µM (inactive) with OVCAR-4; > 100 µM (inactive) in the test with NCI-H226.
Turning to `COc1cc(-c2n[nH]cc2CCCC(=O)Nc2ccccc2[N+](=O)[O-])ccc1O`, the GI50 is 64.9 µM (inactive) with EKVX; > 100 µM (inactive) in the test with DLD-1; 94 µM (inactive) in the test on NCI-H522; > 100 µM (inactive) in the test with SN12C; 46.9 µM (inactive) in the test with SR; > 100 µM (inactive) in the test on LOX IMVI. Moreover, the GI50 in the test with NCI-H23 was > 100 µM (inactive); in the test on A498, > 100 µM (inactive); with HCT-15, 64.6 µM; with COLO 205 it was > 100 µM (inactive); in the test with SW-620, 59.3 µM (inactive); with OVCAR-4, > 100 µM (inactive). The GI50 in the test on NCI-H226 is > 100 µM (inactive).
Turning to `CN(C)CCn1c2c3ccccc3ccc2c2oc(=O)c3ccccc3c21`, the GI50 with EKVX is 12.6 µM (inactive); with DLD-1, 5.11 µM (inactive); with NCI-H522, 9.46 µM (inactive); in the test with SR, 2.78 µM (inactive); with LOX IMVI, 4.23 µM (inactive); in the test on NCI-H23, 6.3 µM (inactive). Further, the GI50 in the test with SK-MEL-2 is 17.9 µM (inactive); in the test with HCT-15, 8.34 µM; in the test on COLO 205 it was 4.17 µM (inactive); in the test with SW-620, 4 µM (inactive); in the test with OVCAR-4, 6.44 µM (inactive).
Turning to `Cn1c(=O)oc2cc(C3CCC(=O)N3Cc3csc(-c4ccccc4)n3)ccc21` (configuration not stated), the GI50 in the test with EKVX is > 100 µM (inactive); in the test on DLD-1 it was 86.9 µM (inactive); in the test with NCI-H522 it was > 100 µM (inactive); in the test with SN12C, > 100 µM (inactive); in the test on SR, 63.7 µM (inactive); with LOX IMVI, > 100 µM (inactive). For the same compound, the GI50 in the test with NCI-H23 was > 100 µM (inactive); with SK-MEL-2 it was > 100 µM (inactive); with HCT-15, more than 100 µM; in the test with COLO 205, 77.3 µM (inactive); with SW-620 it was > 100 µM (inactive); with OVCAR-4, > 100 µM (inactive). For the same compound, the GI50 in the test on NCI-H226 was > 100 µM (inactive).
On to `Cc1ccccc1C1CC(c2ccccc2)=NO1` (configuration not stated), for which the GI50 with EKVX, in the test with DLD-1, with NCI-H522, with SN12C, in the test with SR and with NCI-H23 was > 100 µM (inactive) each time. Also, the GI50 in the test with A498 was > 100 µM (inactive); with SK-MEL-2, > 100 µM (inactive); in the test with HCT-15, more than 100 µM; in the test on COLO 205, > 100 µM (inactive); in the test on SW-620, > 100 µM (inactive); in the test on OVCAR-4, > 100 µM (inactive). Moreover, the GI50 with NCI-H226 is > 100 µM (inactive).
With `O=C1CCC(=O)N2CCCCN12`, the GI50 in the test with EKVX, with DLD-1, with NCI-H522, in the test with SN12C, in the test with LOX IMVI and in the test on NCI-H23 was > 100 µM (inactive) throughout. The GI50 is > 100 µM (inactive) in the test on A498; > 100 µM (inactive) with SK-MEL-2; more than 100 µM in the test with HCT-15; > 100 µM (inactive) in the test with COLO 205; > 100 µM (inactive) in the test with SW-620; > 100 µM (inactive) in the test on OVCAR-4. Besides, in the test with NCI-H226, the GI50 is > 100 µM (inactive).
As to `CC(C)CC(CNC(Cc1ccc(Cl)cc1)C(N)=O)NC(=O)C(Cc1c[nH]cn1)NC(=O)CNC(=O)C(NC(=O)C(C)NC(=O)C(Cc1c[nH]c2ccccc12)NC(=O)C(CCC(=O)O)NC(=O)C(N)Cc1ccccc1)C(C)C` (configuration not stated), the GI50 in the test with EKVX, in the test on DLD-1, with SN12C, in the test with SR, with NCI-H23 and in the test on A498 was > 133 µM (inactive) in each case. For the same compound, the GI50 was > 133 µM (inactive) with SK-MEL-2; more than 133 µM in the test on HCT-15; > 133 µM (inactive) in the test on COLO 205; > 133 µM (inactive) in the test on SW-620; > 133 µM (inactive) in the test on OVCAR-4.
In the case of `CC1C=C(OC(=O)c2ccccc2)C(=O)C(n2cc(F)c(=O)[nH]c2=O)O1` (configuration not stated), the GI50 was > 100 µM (inactive) with EKVX; 22.8 µM (inactive) in the test on DLD-1; > 100 µM (inactive) in the test on NCI-H522; > 100 µM (inactive) in the test with SN12C; 53.6 µM (inactive) in the test on NCI-H23; > 100 µM (inactive) in the test on A498. Further, the GI50 in the test on SK-MEL-2 was 79.3 µM (inactive); in the test on HCT-15 it was 50.6 µM; in the test with COLO 205, 50.9 µM (inactive); in the test on SW-620, > 100 µM (inactive); in the test on OVCAR-4 it was 53.2 µM (inactive); with NCI-H226 it was > 100 µM (inactive).
For `CCCc1n[nH]c(CCC(=O)N(Cc2ccccc2)Cc2ccccc2)c1CC`, the GI50 in the test with EKVX, in the test with DLD-1, in the test with NCI-H522, in the test on SN12C, with LOX IMVI and in the test with NCI-H23 was > 100 µM (inactive) in each case. Further, the GI50 is > 100 µM (inactive) in the test with A498; > 100 µM (inactive) in the test with SK-MEL-2; more than 100 µM with HCT-15; > 100 µM (inactive) in the test with COLO 205; > 100 µM (inactive) in the test on SW-620; > 100 µM (inactive) in the test on OVCAR-4. Besides, the GI50 with NCI-H226 is > 100 µM (inactive).
As to `NC(N)NCCCc1cn2c(n1)C1CCCN1C(=O)C2Cc1ccccc1` (configuration not stated), the GI50 in the test on EKVX, in the test on DLD-1, with NCI-H522, in the test on SN12C, in the test with LOX IMVI and with NCI-H23 was > 100 µM (inactive) each time. Moreover, the GI50 was > 100 µM (inactive) with A498; > 100 µM (inactive) with SK-MEL-2; more than 100 µM in the test with HCT-15; > 100 µM (inactive) in the test with COLO 205; > 100 µM (inactive) in the test with SW-620; > 100 µM (inactive) in the test on OVCAR-4. In addition, the GI50 with NCI-H226 is > 100 µM (inactive).
As to `NC(CCCCNCc1ccccc1O)C(=O)O` (configuration not stated), the GI50 with EKVX, with DLD-1, in the test on NCI-H522, with SN12C, in the test on LOX IMVI and with NCI-H23 was > 100 µM (inactive) in each case. For the same compound, the GI50 in the test on A498 is > 100 µM (inactive); in the test with SK-MEL-2, > 100 µM (inactive); with HCT-15, more than 100 µM; in the test with COLO 205, > 100 µM (inactive); in the test on SW-620 it was > 100 µM (inactive); in the test with OVCAR-4 it was > 100 µM (inactive). Also, in the test on NCI-H226, the GI50 is > 100 µM (inactive).
For the compound `CC(=O)O[C@H]1CC[C@@]2(C)C(=CC[C@H]3C(CC#N)[C@@](C)(C#N)CCC32)C1` (some centres not stated), the GI50 in the test with EKVX is > 100 µM (inactive); in the test with DLD-1 it was > 100 µM (inactive); with SN12C it was > 100 µM (inactive); in the test with LOX IMVI it was > 100 µM (inactive); in the test on NCI-H23, > 100 µM (inactive); with A498, 38.5 µM (inactive). In addition, the GI50 was > 100 µM (inactive) in the test on SK-MEL-2; more than 100 µM in the test with HCT-15; > 100 µM (inactive) with COLO 205; > 100 µM (inactive) with SW-620; > 100 µM (inactive) in the test with OVCAR-4; > 100 µM (inactive) in the test on NCI-H226.
On to `O=CN1CCN(C=S)CC1`, for which the GI50 with EKVX is > 100 µM (inactive); with DLD-1 it was > 100 µM (inactive); in the test with NCI-H522 it was > 100 µM (inactive); with SN12C, > 100 µM (inactive); in the test on SR, 54.5 µM (inactive); in the test with LOX IMVI, > 100 µM (inactive). The GI50 with NCI-H23 was > 100 µM (inactive); in the test on A498 it was > 100 µM (inactive); in the test on HCT-15, more than 100 µM; with COLO 205 it was > 100 µM (inactive); in the test with SW-620 it was > 100 µM (inactive); in the test with OVCAR-4, > 100 µM (inactive). In addition, the GI50 in the test on NCI-H226 was > 100 µM (inactive).
`COC(=O)[C@@H]1C(=O)O[C@@H](c2cc(OC)c(OC)cc2OC)[C@@H]1C(=O)OC.COC(=O)[C@H]1C(=O)O[C@@H](c2cc(OC)c(OC)cc2OC)[C@@H]1C(=O)OC`: the GI50 with EKVX, in the test on DLD-1, with NCI-H522, in the test with SN12C, in the test with SR and in the test on LOX IMVI was > 100 µM (inactive) each time. Further, the GI50 was > 100 µM (inactive) with NCI-H23; > 100 µM (inactive) in the test with A498; more than 100 µM with HCT-15; > 100 µM (inactive) in the test with COLO 205; > 100 µM (inactive) in the test on SW-620; > 100 µM (inactive) in the test on OVCAR-4. The GI50 in the test with NCI-H226 is > 100 µM (inactive).
For the compound `CS(=O)(=O)Oc1cccc(/C=N/N=C(\N)NO)c1`, the GI50 in the test with EKVX was 34 µM (inactive); in the test on DLD-1, 24.9 µM (inactive); in the test on NCI-H522 it was 26.2 µM (inactive); with SN12C, 29.2 µM (inactive); in the test on SR it was 27.4 µM (inactive); with NCI-H23 it was 27.2 µM (inactive). Besides, the GI50 with A498 was 73.1 µM (inactive); in the test on SK-MEL-2, 34.8 µM (inactive); in the test on HCT-15, 35.1 µM; in the test with COLO 205 it was 26.7 µM (inactive); in the test on SW-620 it was 19.9 µM (inactive); in the test with OVCAR-4 it was 18 µM (inactive). The GI50 with NCI-H226 is 23.3 µM (inactive).

The record behind these values is ChEMBL document CHEMBL1201862, “PubChem BioAssay data set” (2004).
